In article PMC9329436, “Optimization of the 4-anilinoquin(az)oline scaffold as epidermal growth factor receptor (EGFR) inhibitors for chordoma utilizing a toxicology profiling assay platform” (Scientific Reports, 2022):
Read-outs that look alike come from different tables or passages of the source.

Tests used:
Type in all cases: biochemical
[1] = biological target: 320 wild-type protein kinases (Homo sapiens, UniProt Q5TCY1); details: kinase TTBK1, singlicate
Text: (§1) Table S4. Profiling of two compounds at two concentrations against 320 wild-type protein kinases; singlicate measurement; Residual activities (% of control).

[2] = biological target: 320 wild-type protein kinases (Homo sapiens, UniProt P36507); details: singlicate
Text: as §1

[3] = biological target: 320 wild-type protein kinases (Homo sapiens, UniProt P42684); details: singlicate
Text: as §1

[4] = biological target: 320 wild-type protein kinases (Homo sapiens, UniProt P78362); details: kinase SRPK2, singlicate
Text: as §1

[5] = biological target: T1, 320 wild-type protein kinases (Homo sapiens, UniProt P36897); details: kinase TGFB-R1, singlicate
T1 sequence (P36897 34-503): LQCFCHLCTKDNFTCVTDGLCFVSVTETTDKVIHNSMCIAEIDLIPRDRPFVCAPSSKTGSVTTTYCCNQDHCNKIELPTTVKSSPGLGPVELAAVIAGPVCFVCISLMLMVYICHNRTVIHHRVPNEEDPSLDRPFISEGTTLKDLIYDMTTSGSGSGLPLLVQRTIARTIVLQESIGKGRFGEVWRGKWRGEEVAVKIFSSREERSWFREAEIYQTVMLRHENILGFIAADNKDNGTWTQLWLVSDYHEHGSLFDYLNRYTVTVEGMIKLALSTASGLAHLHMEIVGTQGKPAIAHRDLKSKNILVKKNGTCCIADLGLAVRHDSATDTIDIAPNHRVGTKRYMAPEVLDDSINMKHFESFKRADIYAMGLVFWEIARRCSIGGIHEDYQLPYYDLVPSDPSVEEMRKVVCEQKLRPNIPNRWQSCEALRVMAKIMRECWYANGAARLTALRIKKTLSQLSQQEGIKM
Text: as §1

[6] = biological target: 320 wild-type protein kinases (Homo sapiens, UniProt P27448); details: singlicate
Text: as §1

[7] = biological target: 320 wild-type protein kinases (Homo sapiens, UniProt P42685); details: FRK, singlicate
Text: as §1

[8] = biological target: T2, 320 wild-type protein kinases (Homo sapiens, UniProt P41743); details: PKC-iota, singlicate
T2 sequence (P41743 1-596): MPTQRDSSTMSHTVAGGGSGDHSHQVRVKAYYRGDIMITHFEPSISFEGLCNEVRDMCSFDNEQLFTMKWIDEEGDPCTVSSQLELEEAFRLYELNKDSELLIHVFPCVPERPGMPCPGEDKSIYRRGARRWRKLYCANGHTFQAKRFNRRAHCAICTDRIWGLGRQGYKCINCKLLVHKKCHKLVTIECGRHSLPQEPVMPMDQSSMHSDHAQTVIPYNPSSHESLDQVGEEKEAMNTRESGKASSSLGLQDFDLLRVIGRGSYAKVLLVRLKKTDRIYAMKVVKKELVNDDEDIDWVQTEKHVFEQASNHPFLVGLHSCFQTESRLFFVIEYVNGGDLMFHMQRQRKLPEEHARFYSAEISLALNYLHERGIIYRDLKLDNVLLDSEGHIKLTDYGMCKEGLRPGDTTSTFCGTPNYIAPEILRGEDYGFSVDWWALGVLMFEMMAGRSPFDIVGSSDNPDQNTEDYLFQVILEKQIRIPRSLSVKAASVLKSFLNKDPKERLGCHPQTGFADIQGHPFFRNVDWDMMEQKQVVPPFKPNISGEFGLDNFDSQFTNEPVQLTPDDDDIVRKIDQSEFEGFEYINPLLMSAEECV
Text: as §1

[9] = biological target: 320 wild-type protein kinases (Homo sapiens, UniProt P17252); details: PKC-alpha, singlicate
Text: as §1

[10] = biological target: 320 wild-type protein kinases (Homo sapiens, UniProt P22455); details: singlicate
Text: as §1

[11] = biological target: 320 wild-type protein kinases (Homo sapiens, UniProt P43405); details: kinase SYK aa1-635, singlicate
Text: as §1

[12] = biological target: 320 wild-type protein kinases (Homo sapiens, UniProt P34947); details: singlicate
Text: as §1

[13] = biological target: T3, 320 wild-type protein kinases (Homo sapiens, UniProt O43318); details: singlicate
T3 sequence (O43318 1-606): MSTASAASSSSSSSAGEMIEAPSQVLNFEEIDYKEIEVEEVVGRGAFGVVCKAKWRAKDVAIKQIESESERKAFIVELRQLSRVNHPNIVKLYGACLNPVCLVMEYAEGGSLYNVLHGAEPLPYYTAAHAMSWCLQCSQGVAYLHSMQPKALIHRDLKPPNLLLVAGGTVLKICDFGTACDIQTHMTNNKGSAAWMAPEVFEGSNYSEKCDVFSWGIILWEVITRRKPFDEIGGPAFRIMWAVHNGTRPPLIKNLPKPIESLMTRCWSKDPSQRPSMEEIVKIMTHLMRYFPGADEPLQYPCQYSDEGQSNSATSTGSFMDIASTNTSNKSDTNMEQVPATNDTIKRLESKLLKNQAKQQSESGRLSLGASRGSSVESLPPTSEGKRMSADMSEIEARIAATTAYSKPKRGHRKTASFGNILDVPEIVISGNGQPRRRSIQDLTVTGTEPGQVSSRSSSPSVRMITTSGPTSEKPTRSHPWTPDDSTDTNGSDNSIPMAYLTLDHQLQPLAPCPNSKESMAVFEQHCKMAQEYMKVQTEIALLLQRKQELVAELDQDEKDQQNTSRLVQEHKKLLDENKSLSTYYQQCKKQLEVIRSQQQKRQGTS
Text: as §1

Chain of 320 wild-type protein kinases (Homo sapiens, UniProt P36507) (P36507 whole entry): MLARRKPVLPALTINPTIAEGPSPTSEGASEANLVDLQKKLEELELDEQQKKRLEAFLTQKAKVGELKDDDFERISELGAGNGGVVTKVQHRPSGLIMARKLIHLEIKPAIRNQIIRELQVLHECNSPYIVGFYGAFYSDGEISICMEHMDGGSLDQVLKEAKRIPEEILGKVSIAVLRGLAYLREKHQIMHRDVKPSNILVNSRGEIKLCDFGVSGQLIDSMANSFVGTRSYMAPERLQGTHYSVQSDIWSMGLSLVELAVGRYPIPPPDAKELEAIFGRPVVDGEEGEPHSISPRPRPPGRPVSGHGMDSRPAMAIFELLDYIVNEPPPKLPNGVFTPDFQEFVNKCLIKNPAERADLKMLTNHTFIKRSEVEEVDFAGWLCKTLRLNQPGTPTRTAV
Chain of 320 wild-type protein kinases (Homo sapiens, UniProt P42685) (P42685 whole entry): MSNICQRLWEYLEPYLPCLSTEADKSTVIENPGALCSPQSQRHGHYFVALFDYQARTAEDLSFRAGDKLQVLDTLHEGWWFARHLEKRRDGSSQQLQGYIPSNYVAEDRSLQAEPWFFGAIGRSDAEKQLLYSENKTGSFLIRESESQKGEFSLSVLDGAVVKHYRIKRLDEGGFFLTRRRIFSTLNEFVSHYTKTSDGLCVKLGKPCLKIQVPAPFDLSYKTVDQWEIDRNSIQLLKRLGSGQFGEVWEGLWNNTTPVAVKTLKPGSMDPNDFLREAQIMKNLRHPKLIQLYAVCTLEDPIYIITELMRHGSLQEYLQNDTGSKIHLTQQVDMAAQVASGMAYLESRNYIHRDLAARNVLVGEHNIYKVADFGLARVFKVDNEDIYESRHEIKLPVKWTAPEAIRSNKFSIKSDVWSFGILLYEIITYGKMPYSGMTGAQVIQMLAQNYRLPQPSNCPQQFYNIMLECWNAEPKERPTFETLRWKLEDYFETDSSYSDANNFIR
Chain of 320 wild-type protein kinases (Homo sapiens, UniProt Q5TCY1) (Q5TCY1 whole entry): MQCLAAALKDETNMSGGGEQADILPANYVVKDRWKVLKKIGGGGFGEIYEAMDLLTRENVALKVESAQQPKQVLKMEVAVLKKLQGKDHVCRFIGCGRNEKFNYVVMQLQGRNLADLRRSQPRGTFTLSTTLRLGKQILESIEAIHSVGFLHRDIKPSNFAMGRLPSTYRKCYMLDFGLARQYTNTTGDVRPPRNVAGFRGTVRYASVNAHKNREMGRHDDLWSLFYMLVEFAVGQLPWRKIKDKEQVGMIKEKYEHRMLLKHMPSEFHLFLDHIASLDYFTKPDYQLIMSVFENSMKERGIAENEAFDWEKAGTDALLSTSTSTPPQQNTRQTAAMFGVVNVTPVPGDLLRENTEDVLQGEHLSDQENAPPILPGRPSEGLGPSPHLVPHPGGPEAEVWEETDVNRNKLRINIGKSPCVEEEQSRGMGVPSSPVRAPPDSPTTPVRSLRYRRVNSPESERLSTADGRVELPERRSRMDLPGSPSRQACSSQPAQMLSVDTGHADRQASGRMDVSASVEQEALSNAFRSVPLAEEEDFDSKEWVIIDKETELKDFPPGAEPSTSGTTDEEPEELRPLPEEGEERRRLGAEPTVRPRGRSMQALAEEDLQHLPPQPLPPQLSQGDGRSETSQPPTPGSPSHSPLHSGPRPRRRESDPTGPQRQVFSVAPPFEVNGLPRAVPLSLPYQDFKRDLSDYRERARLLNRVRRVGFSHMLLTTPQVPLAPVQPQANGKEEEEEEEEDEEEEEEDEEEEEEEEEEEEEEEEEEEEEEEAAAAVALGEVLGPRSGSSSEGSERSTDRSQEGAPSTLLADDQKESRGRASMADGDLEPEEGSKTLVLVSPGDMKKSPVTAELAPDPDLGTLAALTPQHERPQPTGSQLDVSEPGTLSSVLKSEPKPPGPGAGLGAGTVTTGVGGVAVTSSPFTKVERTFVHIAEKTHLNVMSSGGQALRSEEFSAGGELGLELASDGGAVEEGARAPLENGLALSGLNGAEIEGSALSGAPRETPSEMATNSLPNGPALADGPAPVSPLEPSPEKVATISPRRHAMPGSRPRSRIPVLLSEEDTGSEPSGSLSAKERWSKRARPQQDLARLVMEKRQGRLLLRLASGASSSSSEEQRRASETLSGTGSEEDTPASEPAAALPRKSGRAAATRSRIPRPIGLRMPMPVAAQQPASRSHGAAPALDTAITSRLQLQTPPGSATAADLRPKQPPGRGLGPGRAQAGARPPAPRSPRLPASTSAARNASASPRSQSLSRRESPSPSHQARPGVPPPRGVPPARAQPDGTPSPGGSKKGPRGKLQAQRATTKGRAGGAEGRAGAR
Chain of 320 wild-type protein kinases (Homo sapiens, UniProt P42684) (P42684 whole entry): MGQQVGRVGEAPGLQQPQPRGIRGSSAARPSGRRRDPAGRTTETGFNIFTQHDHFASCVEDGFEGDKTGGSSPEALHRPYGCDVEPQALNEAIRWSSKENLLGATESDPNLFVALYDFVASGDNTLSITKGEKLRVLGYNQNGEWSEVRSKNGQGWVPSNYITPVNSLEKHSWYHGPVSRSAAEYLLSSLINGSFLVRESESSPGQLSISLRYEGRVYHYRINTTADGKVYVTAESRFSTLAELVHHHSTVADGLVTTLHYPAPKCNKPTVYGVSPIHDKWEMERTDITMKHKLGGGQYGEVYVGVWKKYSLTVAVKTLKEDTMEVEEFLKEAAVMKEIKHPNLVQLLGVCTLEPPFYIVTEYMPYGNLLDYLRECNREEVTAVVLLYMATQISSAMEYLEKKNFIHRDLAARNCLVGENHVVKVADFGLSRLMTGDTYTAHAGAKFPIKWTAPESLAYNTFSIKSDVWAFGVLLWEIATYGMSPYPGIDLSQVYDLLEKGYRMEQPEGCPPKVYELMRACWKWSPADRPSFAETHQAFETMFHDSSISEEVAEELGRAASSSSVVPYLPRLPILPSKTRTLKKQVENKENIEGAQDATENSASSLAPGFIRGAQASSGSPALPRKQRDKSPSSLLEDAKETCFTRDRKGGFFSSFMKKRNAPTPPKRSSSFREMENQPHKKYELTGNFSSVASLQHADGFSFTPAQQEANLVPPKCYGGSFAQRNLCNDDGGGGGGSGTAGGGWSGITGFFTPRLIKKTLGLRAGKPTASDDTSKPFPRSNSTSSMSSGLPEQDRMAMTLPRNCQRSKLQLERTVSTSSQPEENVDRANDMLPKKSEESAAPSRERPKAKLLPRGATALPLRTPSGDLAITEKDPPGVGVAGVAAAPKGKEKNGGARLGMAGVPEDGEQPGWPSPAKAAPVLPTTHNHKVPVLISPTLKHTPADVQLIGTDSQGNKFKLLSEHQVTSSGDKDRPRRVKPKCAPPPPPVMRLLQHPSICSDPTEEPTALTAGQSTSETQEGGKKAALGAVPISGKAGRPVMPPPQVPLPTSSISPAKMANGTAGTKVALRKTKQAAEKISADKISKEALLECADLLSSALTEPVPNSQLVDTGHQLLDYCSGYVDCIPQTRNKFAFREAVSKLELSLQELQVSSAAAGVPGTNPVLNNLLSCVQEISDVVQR
Chain of 320 wild-type protein kinases (Homo sapiens, UniProt P22455) (P22455 22-802): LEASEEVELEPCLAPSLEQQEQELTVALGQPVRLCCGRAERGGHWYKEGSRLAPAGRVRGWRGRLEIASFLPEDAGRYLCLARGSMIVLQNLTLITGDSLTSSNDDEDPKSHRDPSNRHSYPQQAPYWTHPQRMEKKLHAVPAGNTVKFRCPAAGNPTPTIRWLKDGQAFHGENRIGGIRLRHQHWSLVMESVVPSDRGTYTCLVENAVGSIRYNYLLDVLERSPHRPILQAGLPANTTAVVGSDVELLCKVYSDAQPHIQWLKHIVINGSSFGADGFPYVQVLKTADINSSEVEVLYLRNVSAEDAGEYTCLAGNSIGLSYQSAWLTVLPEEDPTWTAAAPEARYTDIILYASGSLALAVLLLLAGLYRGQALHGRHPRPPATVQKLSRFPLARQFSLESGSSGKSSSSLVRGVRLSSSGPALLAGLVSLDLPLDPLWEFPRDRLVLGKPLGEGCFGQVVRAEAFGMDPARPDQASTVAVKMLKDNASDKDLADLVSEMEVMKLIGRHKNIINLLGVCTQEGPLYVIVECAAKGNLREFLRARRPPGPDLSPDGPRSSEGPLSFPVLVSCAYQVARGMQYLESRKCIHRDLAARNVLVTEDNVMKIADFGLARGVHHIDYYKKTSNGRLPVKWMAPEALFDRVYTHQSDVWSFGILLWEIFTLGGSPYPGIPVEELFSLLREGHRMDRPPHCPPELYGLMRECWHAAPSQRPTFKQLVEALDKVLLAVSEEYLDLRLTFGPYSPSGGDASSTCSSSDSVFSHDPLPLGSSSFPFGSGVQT

Row | Compound | Residual activity, TTBK1 ([1]; assay conc. 1.0E-06 M) | Residual activity, TTBK1 ([1]; assay conc. 1.0E-07 M) | Residual activity ([2]; MEK2, 1.0E-06 M) | Residual activity ([2]; MEK2, 1.0E-07 M) | Residual activity ([3]; ABL2, 1.0E-06 M) | Residual activity ([3]; ABL2, 1.0E-07 M) | Residual activity, SRPK2 ([4]; assay conc. 1.0E-06 M) | Residual activity, SRPK2 ([4]; assay conc. 1.0E-07 M) | Residual activity, TGFB-R1 ([5]; assay conc. 1.0E-06 M) | Residual activity, TGFB-R1 ([5]; assay conc. 1.0E-07 M) | Residual activity ([6]; MARK3, 1.0E-06 M) | Residual activity ([6]; MARK3, 1.0E-07 M) | Residual activity ([7]; 1.0E-06 M) | Residual activity ([7]; 1.0E-07 M) | Residual activity ([8]; 1.0E-06 M) | Residual activity ([8]; 1.0E-07 M) | Residual activity ([9]; 1.0E-06 M) | Residual activity ([9]; 1.0E-07 M) | Residual activity ([10]; FGF-R4, 1.0E-06 M) | Residual activity ([10]; FGF-R4, 1.0E-07 M) | further results
1 | C#Cc1cc(Nc2ncnc3cc(I)ccc23)ccc1Cl [Compound 41] | 102 % of control | 113 % of control | 80 % of control | 101 % of control | 97 % of control | 106 % of control | 115 % of control | 131 % of control | 81 % of control | 86 % of control | 95 % of control | 97 % of control | 106 % of control | 93 % of control | 104 % of control | 119 % of control | 95 % of control | 86 % of control | 88 % of control | 96 % of control | Residual activity, SYK aa1-635 ([11]; assay conc. 1.0E-06 M): 94 % of control; Residual activity, SYK aa1-635 ([11]; assay conc. 1.0E-07 M): 94 % of control; Residual activity ([12]; GRK5, 1.0E-06 M): 111 % of control; Residual activity ([12]; GRK5, 1.0E-07 M): 108 % of control; Residual activity ([13]; MAP3K7/MAP3K7IP1, 1.0E-06 M): 87 % of control; Residual activity ([13]; MAP3K7/MAP3K7IP1, 1.0E-07 M): 98 % of control
2 | C#Cc1cc(Nc2ncnc3cc(OC)c(OC)cc23)ccc1Cl [Compound 45] | 101 % of control | 109 % of control | 105 % of control | 102 % of control | 68 % of control | 96 % of control | 151 % of control | 115 % of control | 75 % of control | 84 % of control | 100 % of control | 96 % of control | 74 % of control | 96 % of control | 96 % of control | 139 % of control | 94 % of control | 111 % of control | 96 % of control | 100 % of control | Residual activity, SYK aa1-635 ([11]; assay conc. 1.0E-06 M): 104 % of control; Residual activity, SYK aa1-635 ([11]; assay conc. 1.0E-07 M): 105 % of control; Residual activity ([12]; GRK5, 1.0E-06 M): 111 % of control; Residual activity ([12]; GRK5, 1.0E-07 M): 107 % of control; Residual activity ([13]; MAP3K7/MAP3K7IP1, 1.0E-06 M): 79 % of control; Residual activity ([13]; MAP3K7/MAP3K7IP1, 1.0E-07 M): 81 % of control
